Experimental data published in US6358885B1, “Substituted phenylheterocyclic herbicides” (Mississippi State University, priority 1992, dated 2002).

What was measured:
barnyardgrass = assay: Test B preemergence/postemergence greenhouse plant response rating 0 to 10; assay type: in vivo, Echinochloa crus-galli; details: 0 to 10 scale
Outline: (§1)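 Planted seeds are treated preemergence with compound dissolved in a non-phytotoxic solvent, while postemergence applications go onto plants of two to eighteen cm. Plants stay in the greenhouse twelve to sixteen days and are then rated visually relative to controls.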

blackgrass = assay: as above; assay type: in vivo, Alopecurus myosuroides; details: 0 to 10 scale
Outline: as §1

wild oat = assay: Test C preemergence/postemergence greenhouse plant response rating 0 to 100; assay type: in vivo, Avena fatua; details: POSTEMERGENCE; for Plant response rating, Wild oat: 0 to 100 scale
From the text: (§2) The compounds evaluated in this test were formulated in a non-phytoxic solvent and applied to the soil surface before plant seedlings emerged (preemergence application), to water that covered the soil surface (flood application), and to plants that were in the one-to-four leaf stage (postemergence application). A sandy loam soil was used for the preemergence and postemergence tests, while a silt loam soil was used in the flood test. Water depth was approximately 2.5 cm for the flood test and was maintained at this level for the duration of the test. Plant species in the preemergence and postemergence tests consisted of barley (Hordeum vulgare), bedstraw (Galium aparine), blackgrass (Alopecurus myosuroides), chickweed (Stellaria media), corn (Zea mays), cotton (Gossypium hirsutum), crabgrass (Digitaria sanguinalis), downy brome (Bromus tectorum), giant foxtail (Setaria faberii), lambsquarters (Chenopodium album), morningglory (Ipomoea hederacea), pigweed ([…]), rape (Brassica napus), ryegrass (Lolium multiflorum), sorghum (Sorghum bicolor), soybean (Glycine max), speedwell (Veronica persica), sugar beet (Beta vulgaris), velvetleaf (Abutilon theophrasti), wheat (Triticum aestivum), wild buckwheat (Polygonum convolvulus), and wild oat (Avena fatua). All plant species were planted one day before application of the compound for the preemergence portion-of this test. Plantings of these species were adjusted to produce plants of appropriate size for the post-emergence portion of the test. […] All plant species were grown using normal greenhouse practices. Visual evaluations of injury expressed on treated plants, when compared to untreated controls, were recorded approximately fourteen to twenty one days after application of the test compound. […] A dash (-) response means no test result.

velvetleaf = assay: Test B preemergence/postemergence greenhouse plant response rating 0 to 10; assay type: in vivo, Abutilon theophrasti; details: 0 to 10 scale
Outline: as §1

crabgrass = assay: Test C preemergence/postemergence greenhouse plant response rating 0 to 100; assay type: in vivo, Digitaria sanguinalis; details: POSTEMERGENCE; for Plant response rating, Crabgrass: 0 to 100 scale
From the text: as §2

rice = assay: Test C flood test plant response rating 0 to 100; assay type: in vivo, Oryza sativa; details: for Plant response rating (0 to 100), Rice Japonica: under POSTEMERGENCE head (flood test species); for Plant response rating Rice Japonica: flood test species listed under POSTEMERGENCE, 0 to 100 scale
From the text: as §2

morningglory = assay: Test C preemergence/postemergence greenhouse plant response rating 0 to 100; assay type: in vivo, Ipomoea hederacea; details: POSTEMERGENCE; for Plant response rating, Morningglory: 0 to 100 scale
From the text: as §2

ryegrass = assay: as above; assay type: in vivo, Lolium multiflorum; details: POSTEMERGENCE; for Plant response rating Ryegrass: 0 to 100 scale
From the text: as §2

corn [1] = assay: as above; assay type: in vivo, Zea mays; details: POSTEMERGENCE; for Plant response rating, Corn: 0 to 100 scale
From the text: as §2

corn [2] = assay: Test B preemergence/postemergence greenhouse plant response rating 0 to 10; assay type: in vivo, Zea mays; details: 0 to 10 scale
Outline: as §1

sorghum = assay: as above; assay type: in vivo, Sorghum bicolor; details: 0 to 10 scale
Outline: as §1

purple nutsedge = assay: as above; assay type: in vivo, Cyperus rotundus; details: 0 to 10 scale
Outline: as §1

bedstraw = assay: Test C preemergence/postemergence greenhouse plant response rating 0 to 100; assay type: in vivo, Galium aparine; details: POSTEMERGENCE; for Plant response rating, Bedstraw: 0 to 100 scale
From the text: as §2

rape = assay: as above; assay type: in vivo, Brassica napus; details: POSTEMERGENCE; for Plant response rating, Rape: 0 to 100 scale
From the text: as §2

sugar beet = assay: Test B preemergence/postemergence greenhouse plant response rating 0 to 10; assay type: in vivo, Beta vulgaris; details: 0 to 10 scale
Outline: as §1

wheat = assay: Test C preemergence/postemergence greenhouse plant response rating 0 to 100; assay type: in vivo, Triticum aestivum; details: POSTEMERGENCE; for Plant response rating, Wheat: 0 to 100 scale
From the text: as §2

barley = assay: Test B preemergence/postemergence greenhouse plant response rating 0 to 10; assay type: in vivo, Hordeum vulgare; details: 0 to 10 scale
Outline: as §1

Question: With `C#CC(C)Oc1cc(-c2nn3c(c2Cl)CCCC3)c(F)cc1Cl` (centres unmarked) [Compound 36] as the molecule, how does the “Plant response rating, Barnyardgrass” value (barnyardgrass; POSTEMERGENCE, Rate 50 g/ha) read?
Answer: 6

Question: What about the “Plant response rating, Barnyardgrass” value (barnyardgrass; POSTEMERGENCE, Rate 200 g/ha) of the same molecule?
Answer: 9

Question: What about the “Plant response rating, Barnyardgrass” value (barnyardgrass; PREEMERGENCE, Rate 50 g/ha) of the same molecule?
Answer: 3

Question: What about the “Plant response rating, Barnyardgrass” value (barnyardgrass; Rate 200 g/ha, PREEMERGENCE) of the same molecule?
Answer: 5

Question: What about the “Plant response rating, Blackgrass” value (blackgrass; POSTEMERGENCE, Rate 50 g/ha) of the same molecule?
Answer: 5

Question: And the “Plant response rating, Blackgrass” value (blackgrass; POSTEMERGENCE, Rate 200 g/ha)?
Answer: 7

Question: And the “Plant response rating, Blackgrass” value (blackgrass; PREEMERGENCE, Rate 50 g/ha)?
Answer: 4

Question: And the “Plant response rating, Blackgrass” value (blackgrass; Rate 200 g/ha, PREEMERGENCE)?
Answer: 10

Question: What about the “Plant response rating, Wild oat” value (wild oat; 62 g/ha) of the same molecule?
Answer: 30

Question: What about the “Plant response rating, Wild oat” value (wild oat; 125 g/ha) of the same molecule?
Answer: 50

Question: And the “Plant response rating (0 to 100), Wild oat” value (wild oat; Rate 16 g/ha)?
Answer: 10

Question: What about the “Plant response rating (0 to 100), Wild oat” value (wild oat; Rate 31 g/ha) of the same molecule?
Answer: 20

Question: What about the “Plant response rating, Velvetleaf” value (velvetleaf; POSTEMERGENCE, Rate 50 g/ha) of the same molecule?
Answer: 10

Question: What about the “Plant response rating, Velvetleaf” value (velvetleaf; PREEMERGENCE, Rate 50 g/ha) of the same molecule?
Answer: 8

Question: And the “Plant response rating, Velvetleaf” value (velvetleaf; Rate 200 g/ha, POSTEMERGENCE)?
Answer: 10

Question: And the “Plant response rating, Velvetleaf” value (velvetleaf; Rate 200 g/ha, PREEMERGENCE)?
Answer: 10

Question: And the “Plant response rating, Crabgrass” value (crabgrass; 62 g/ha)?
Answer: 50

Question: And the “Plant response rating, Crabgrass” value (crabgrass; 125 g/ha)?
Answer: 60

Question: And the “Plant response rating (0 to 100), Crabgrass” value (crabgrass; Rate 16 g/ha)?
Answer: 20

Question: And the “Plant response rating (0 to 100), Crabgrass” value (crabgrass; Rate 31 g/ha)?
Answer: 30

Question: And the “Plant response rating (0 to 100), Rice Japonica” value (rice; Rate 16 g/ha)?
Answer: 20

Question: What about the “Plant response rating (0 to 100), Rice Japonica” value (rice; Rate 31 g/ha) of the same molecule?
Answer: 35

Question: What about the “Plant response rating Rice Japonica” value (rice; 62 g/ha) of the same molecule?
Answer: 40

Question: What about the “Plant response rating Rice Japonica” value (rice; 125 g/ha) of the same molecule?
Answer: 50

Question: What about the “Plant response rating, Morningglory” value (morningglory; 62 g/ha) of the same molecule?
Answer: 100

Question: What about the “Plant response rating, Morningglory” value (morningglory; 125 g/ha) of the same molecule?
Answer: 100

Question: What about the “Plant response rating (0 to 100), Morningglory” value (morningglory; Rate 16 g/ha) of the same molecule?
Answer: 80

Question: What about the “Plant response rating (0 to 100), Morningglory” value (morningglory; Rate 31 g/ha) of the same molecule?
Answer: 80

Question: What about the “Plant response rating Ryegrass” value (ryegrass; 62 g/ha) of the same molecule?
Answer: 30

Question: What about the “Plant response rating Ryegrass” value (ryegrass; 125 g/ha) of the same molecule?
Answer: 50

Question: What about the “Plant response rating (0 to 100), Ryegrass” value (ryegrass; Rate 16 g/ha) of the same molecule?
Answer: 20

Question: And the “Plant response rating (0 to 100), Ryegrass” value (ryegrass; Rate 31 g/ha)?
Answer: 30

Question: What about the “Plant response rating, Corn” value (corn [1]; 62 g/ha) of the same molecule?
Answer: 50

Question: And the “Plant response rating, Corn” value (corn [1]; 125 g/ha)?
Answer: 60

Question: What about the “Plant response rating (0 to 100), Corn” value (corn [1]; Rate 16 g/ha) of the same molecule?
Answer: 30

Question: And the “Plant response rating (0 to 100), Corn” value (corn [1]; Rate 31 g/ha)?
Answer: 40

Question: What about the “Plant response rating, Corn” value (corn [2]; POSTEMERGENCE, Rate 50 g/ha) of the same molecule?
Answer: 5

Question: What about the “Plant response rating, Corn” value (corn [2]; POSTEMERGENCE, Rate 200 g/ha) of the same molecule?
Answer: 6

Question: And the “Plant response rating, Corn” value (corn [2]; PREEMERGENCE, Rate 50 g/ha)?
Answer: 0

Question: And the “Plant response rating, Corn” value (corn [2]; Rate 200 g/ha, PREEMERGENCE)?
Answer: 4

Question: What about the “Plant response rating, Sorghum” value (sorghum; POSTEMERGENCE, Rate 50 g/ha) of the same molecule?
Answer: 5

Question: What about the “Plant response rating, Sorghum” value (sorghum; PREEMERGENCE, Rate 50 g/ha) of the same molecule?
Answer: 0

Question: What about the “Plant response rating, Sorghum” value (sorghum; Rate 200 g/ha, POSTEMERGENCE) of the same molecule?
Answer: 6

Question: What about the “Plant response rating, Sorghum” value (sorghum; Rate 200 g/ha, PREEMERGENCE) of the same molecule?
Answer: 1

Question: And the “Plant response rating, Nutsedge” value (purple nutsedge; POSTEMERGENCE, Rate 50 g/ha)?
Answer: 4

Question: What about the “Plant response rating, Nutsedge” value (purple nutsedge; PREEMERGENCE, Rate 50 g/ha) of the same molecule?
Answer: 0

Question: And the “Plant response rating, Nutsedge” value (purple nutsedge; Rate 200 g/ha, POSTEMERGENCE)?
Answer: 5

Question: And the “Plant response rating, Nutsedge” value (purple nutsedge; Rate 200 g/ha, PREEMERGENCE)?
Answer: 2

Question: What about the “Plant response rating, Bedstraw” value (bedstraw; 62 g/ha) of the same molecule?
Answer: 100

Question: And the “Plant response rating, Bedstraw” value (bedstraw; 125 g/ha)?
Answer: 100

Question: And the “Plant response rating (0 to 100), Bedstraw” value (bedstraw; Rate 16 g/ha)?
Answer: 90

Question: What about the “Plant response rating (0 to 100), Bedstraw” value (bedstraw; Rate 31 g/ha) of the same molecule?
Answer: 100

Question: And the “Plant response rating, Rape” value (rape; 62 g/ha)?
Answer: 100

Question: What about the “Plant response rating, Rape” value (rape; 125 g/ha) of the same molecule?
Answer: 100

Question: What about the “Plant response rating (0 to 100), Rape” value (rape; Rate 16 g/ha) of the same molecule?
Answer: 85

Question: And the “Plant response rating (0 to 100), Rape” value (rape; Rate 31 g/ha)?
Answer: 90

Question: What about the “Plant response rating, Sugar beet” value (sugar beet; POSTEMERGENCE, Rate 50 g/ha) of the same molecule?
Answer: 10

Question: And the “Plant response rating, Sugar beet” value (sugar beet; PREEMERGENCE, Rate 50 g/ha)?
Answer: 9

Question: And the “Plant response rating, Sugar beet” value (sugar beet; Rate 200 g/ha, POSTEMERGENCE)?
Answer: 10

Question: And the “Plant response rating, Sugar beet” value (sugar beet; Rate 200 g/ha, PREEMERGENCE)?
Answer: 9

Question: And the “Plant response rating, Wheat” value (wheat; 62 g/ha)?
Answer: 50

Question: What about the “Plant response rating, Wheat” value (wheat; 125 g/ha) of the same molecule?
Answer: 50

Question: What about the “Plant response rating (0 to 100), Wheat” value (wheat; Rate 16 g/ha) of the same molecule?
Answer: 20

Question: What about the “Plant response rating (0 to 100), Wheat” value (wheat; Rate 31 g/ha) of the same molecule?
Answer: 30

Question: And the “Plant response rating, Barley” value (barley; POSTEMERGENCE, Rate 50 g/ha)?
Answer: 5

Question: And the “Plant response rating, Barley” value (barley; POSTEMERGENCE, Rate 200 g/ha)?
Answer: 6

Question: What about the “Plant response rating, Barley” value (barley; PREEMERGENCE, Rate 50 g/ha) of the same molecule?
Answer: 0

Question: What about the “Plant response rating, Barley” value (barley; Rate 200 g/ha, PREEMERGENCE) of the same molecule?
Answer: 2
